# Data taken from patent US8318811B2, “Method for treating an inflammatory bowel disease using 2-amino-2-[4-(3-benzyloxyphenylthio)-2-chlorophenyl]ethyl-1,3-propanediol or a salt thereof” (Kyorin Pharmaceutical Co., Ltd., priority 2006, dated 2012).
# Where a name gives a salt, the structure may show the parent alone.
# Key:
# [1] = test system: Dextran Sodium Sulfate-Induced Colitis in Mice; experiment: Dextran sodium sulfate-induced colitis in mice; format: in vivo, BALB/C male mice; settings: for Length of large intestine / myeloperoxidase activity in large intestine: DSS colitis, average ± standard error
# Protocol: Colitis was induced in BALB/C male mice by allowing animals To drink a5% aqueous solution of dextran sodium sulfate (DSS) (average molecular weight=5000) for 7 days [Kitajima, S. et. al., Exp Anim, Vol. 49, No. 1: 9-15 (2000)]. KRP-203 dissolved in distilled water (at 0.01, 0.03 and 0.1 mg/kg) was orally administered once a day for 8 days, starting the day before the administration of DSS solution. One group was administered distilled water as a placebo.
# 8 days after the start of the DSS period, mice were anesthetized With diethylether and sacrificed by cervical dislocation. The large intestine (the segment from colon to anus) was removed from each animal. Because it is known that the ingestion of DSS solution causes colitis in mice that causes a decrease in the length of large intestine [Okayasu, I. et. al., Gastroenterology, Vol. 98: 694-702 (1990)], the length of the large intestine from the colon to anus was measured with a caliper. The large intestine was then cut open longitudinally to expose the lumen and the content was washed off with physiological saline. The specimens were assayed and compared for the activity of myeloperoxidase, a marker of inflammation in colitis [Grisham, M B. et. al., Methods Enzymol, Vol. 186: 729-742 (1990)]. […]
# Tacrolimus was suspended in a 0.5% aqueous solution of carboxymethylcellulose sodium (CMC-Na) (at 3 mg/kg) and was administered once a day for 8 days, starting the day before the start of the DSS period. One group was administered 0.5% aqueous CMC-Na solution as a placebo. The increase in the myeloperoxidase activity in large intestine was suppressed by 37% in the 3 mg/kg group as compared to the placebo group.
# [2] = test system: IL-10 knockout mice; experiment: Effect on colitis in IL-10 knockout mice (histological score of large intestine); format: in vivo, B6.129P2-IL10<tm1Cgn>/J (IL-10 knockout) mice; settings: 0.1 mg/kg orally once a day for 4 weeks; sum of proximal, middle and distal large intestine scores; average ± standard error
# Protocol: B6.129P2-IL10^<tm1Cgn>/J (IL-10 knockout) mice (male, 5-6 week old) were obtained for the test. KRP-203 dissolved in distilled water was orally administered at a dose of 0.1 mg/kg once a day for 4 weeks, starting 8 weeks after the animals were obtained. One group was administered distilled water alone as a placebo. Following the administration period, the animals were dissected to remove large intestine, which was then fixed in formalin. Subsequently, tissue slices were prepared from the formalin-fixed large intestine and were stained with hematoxylin and eosin. The proximal, middle, and distal segments of the large intestine were then histologically scored according to the standard procedure (Berg D J, et al., Gastroenterology, 123: 1527-1542 (2002)). The scores for the three segments were added together to determine the histological scores for individual animals. The results are given in average ±standard error.
# [3] = 0.01 mg/kg orally once a day for 8 days
# [4] = 0.03 mg/kg orally once a day for 8 days
# [5] = 0.1 mg/kg orally once a day for 8 days
Structure (SMILES),suppression of the increase in the myeloperoxidase activity in large intestine as compared to the placebo group ([1]; 0.01 mg/kg group) [%],"Length of large intestine [1, 3] [mm]","myeloperoxidase activity in large intestine [1, 3] [U/g protein]",suppression of the increase in the myeloperoxidase activity in large intestine as compared to the placebo group ([1]; 0.03 mg/kg group) [%],"Length of large intestine [1, 4] [mm]","myeloperoxidase activity in large intestine [1, 4] [U/g protein]",suppression of the increase in the myeloperoxidase activity in large intestine as compared to the placebo group ([1]; 0.1 mg/kg group) [%],"Length of large intestine [1, 5] [mm]","myeloperoxidase activity in large intestine [1, 5] [U/g protein]",Histological Score [2],"suppression of the increase in the myeloperoxidase activity in large intestine as compared to the placebo group ([1]; 3 mg/kg group, suspended in 0.5% CMC-Na, once a day for 8 days) [%]"
"NC(CO)(CO)CCc1ccc(Sc2cccc(OCc3ccccc3)c2)cc1Cl [KRP-203, 2-amino-2-[4-(3-benzyloxyphenylthio)-2-chlorophenyl]ethyl-1,3-propanediol hydrochloride]",51,67.4 ± 1.4,55.8 ± 16.2,69,72.7 ± 1.5,36.8 ± 5.9,62,71.4 ± 1.4,44.4 ± 6.4,0.3 ± 0.2,
"C=CC[C@@H]1/C=C(\C)C[C@H](C)C[C@H](OC)[C@H]2O[C@@](O)(C(=O)C(=O)N3CCCC[C@H]3C(=O)O[C@H](/C(C)=C/[C@@H]3CC[C@@H](O)[C@H](OC)C3)[C@H](C)[C@@H](O)CC1=O)[C@H](C)C[C@@H]2OC [Tacrolimus, tacrolimus, reference compound]",,,,,,,,,,,37
